Measurements as given in patent US11834424B2, “Compounds useful as chaperone-mediated autophagy modulators” (ALBERT EINSTEIN COLLEGE OF MEDICINE, priority 2018, dated 2023).
“And” between values parts separate entries of the source, which are not always exact repeats. Equal values may be shown once. “Also recorded” adds a separate entry of the source. Read-outs that look alike come from different tables or passages of the source.

Assay: Pharmacokinetics (plasma and brain levels) in ICR (CD-1) mice
Assay type: in vivo
Settings: i.v. 1 mg/kg; for Conc. in brain, individual animal / concentration at 0.083 h / concentration at 0.25 h / concentration at 0.5 h / concentration at 1 h / concentration at 2 h / concentration at 4 h / concentration at 8 h / concentration at 24 h: mouse brain; for Conc. in plasma, individual animal: mouse plasma; for Brain/Plasma ratio, individual animal / concentration at 0.083 h / concentration at 0.25 h / concentration at 0.5 h / concentration at 1 h / concentration at 2 h / concentration at 4 h / concentration at 8 h / concentration at 24 h: mouse; for concentration at 0.083 h / concentration at 0.25 h / concentration at 0.5 h / concentration at 1 h / concentration at 2 h / concentration at 4 h / concentration at 8 h / concentration at 24 h: male, ICR (CD-1), brain, iv
Experimental: ICR (CD-1) male mice were fasted at least three horns and water was available ad libitum before the study. Animals were housed in a controlled environment, target conditions: temperature 18 to 29° C., relative humidity 30 to 70%. Temperature and relative humidity was monitored daily. An electronic time controlled lighting system was used to provide a 12 h light/12 h dark cycle. 3 mice for each indicated time point. ICR (CD-1) mice were administered CA77 at 1 mg/kg i.v. and 30 mg/kg p.o. or CA77.1 at 1 mg/kg i.v. (FIG. 2A) and 10 mg/kg p.o. (FIG. 2B). Three (3) mice were included in each dosage and time group. Mice were sacrificed and plasma and brains were obtained at 0.083, 0.25, 0.50, 1.0, 2.0, 4.0, 8.0, and 24.0 hours after administration and drug concentration determined using LC-MS/MS. Brains were removed, homogenized with a tissue homogenizer in cold 5% w/v BSA in phosphate buffer saline (PBS). A 100 microliter aliquots of brain samples were dispensed in to glass culture tubes and mixed with ethyl acetate (800 μl), vortexed, and centrifuged. The organic layer was transferred to a fresh culture tube, dried under nitrogen, and reconstituted in mobile phase for quantitation. Pharmacokinetic parameters were determined by standard methods using Phoenix WinNonlin 6.3 software.
Tables 3A and 3B provide the concentrations of CA77 in ICR (CD-1) mouse plasma (3A) and mouse brain (3B) following i.v. administration of 1 mg/kg CA77. Table 3C provides the brain/plasma ratio of CA77 following i.v. administration of 1 mg/kg CA77. Shaded cells indicate data not included in statistics due to aberrant value. BLQ=Below Limit of Quantitation.
Tables 5A and 5B provide the concentrations of CA77.1 in ICR (CD-1) mouse plasma (5A) and mouse brain (5B) following i.v. administration of 1 mg/kg CA77.1. Table 5C provides the brain/plasma ratio of CA77.1 following i.v. administration of 1 mg/kg CA77.1. The plasma and brain pharmacokinetic parameters for CA77.1 are provided in Table 6. *—cells contain data not present in the statistics.

CL obs (ICR (CD-1) mice): 53 mL/min/kg | VSS_obs (ICR (CD-1) mice): 6.463 L/kg | Conc. in brain, individual animal (0.083 h, 1 mg/kg): 1171 ng/g and 970 ng/g | Conc. in brain, individual animal (0.25 h, 1 mg/kg): 813 ng/g and 691 ng/g | Conc. in brain, individual animal (0.50 h, 1 mg/kg): 677 ng/g and 1083 ng/g | Conc. in brain, individual animal (1.00 h, 1 mg/kg): 628 ng/g and 781 ng/g | Conc. in brain, individual animal (2.00 h, 1 mg/kg): 269 ng/g and 186 ng/g | Conc. in brain, individual animal (4.00 h, 1 mg/kg): 13.6 ng/g and 24.9 ng/g | Conc. in brain, individual animal (8.00 h, 1 mg/kg): 3.31 ng/g and 3.66 ng/g | Conc. in brain, individual animal (24.0 h): 0 ng/g | Conc. in plasma, individual animal (0.083 h, 1 mg/kg): 178 ng/mL and 214 ng/mL | Conc. in plasma, individual animal (0.25 h, 1 mg/kg): 152 ng/mL and 104 ng/mL | Conc. in plasma, individual animal (0.50 h, 1 mg/kg): 247 ng/mL and 100 ng/mL and 481 ng/mL | Conc. in plasma, individual animal (1.00 h, 1 mg/kg): 79.3 ng/mL and 85.0 ng/mL | Conc. in plasma, individual animal (2.00 h, 1 mg/kg): 30.8 ng/mL and 38.5 ng/mL and 69.4 ng/mL | Conc. in plasma, individual animal (4.00 h, 1 mg/kg): 3.31 ng/mL and 3.33 ng/mL and 10.2 ng/mL | Conc. in plasma, individual animal (8.00 h, 1 mg/kg): 1.43 ng/mL and 1.42 ng/mL | Conc. in plasma, individual animal (24.0 h, 1 mg/kg): *7.61 ng/mL; also recorded: *16.6 ng/mL | Brain/Plasma ratio, individual animal (0.083 h, 1 mg/kg): 6.57 and 4.53 | Brain/Plasma ratio, individual animal (0.25 h, 1 mg/kg): 5.35 and 6.67 | Brain/Plasma ratio, individual animal (0.50 h, 1 mg/kg): 2.74 and 6.77 and 2.25 | Brain/Plasma ratio, individual animal (1.00 h, 1 mg/kg): 7.92 and 9.19 | Brain/Plasma ratio, individual animal (2.00 h, 1 mg/kg): 8.97 and 7.00 and 2.68 | Brain/Plasma ratio, individual animal (4.00 h, 1 mg/kg): 5.48 and 4.09 and 2.44 | Brain/Plasma ratio, individual animal (8.00 h, 1 mg/kg): 2.31 and 2.59 | concentration at 0.083 h (1 mg/kg, 0.083 h, read-out: Conc. in brain, Mean): 1060 ng/g | concentration at 0.083 h (1 mg/kg, 0.083 h, read-out: Conc. in brain, individual animal): 1030 ng/g | concentration at 0.25 h (1 mg/kg, 0.25 h, read-out: Conc. in brain, Mean): 789 ng/g | concentration at 0.25 h (1 mg/kg, 0.25 h, read-out: Conc. in brain, individual animal): 864 ng/g | concentration at 0.5 h (1 mg/kg, 0.50 h, read-out: Conc. in brain, Mean): 812 ng/g | concentration at 0.5 h (1 mg/kg, 0.50 h, read-out: Conc. in brain, individual animal): 677 ng/g | concentration at 1 h (1 mg/kg, 1.00 h, read-out: Conc. in brain, Mean): 669 ng/g | concentration at 1 h (1 mg/kg, 1.00 h, read-out: Conc. in brain, individual animal): 597 ng/g | concentration at 2 h (1 mg/kg, 2.00 h, read-out: Conc. in brain, Mean): 244 ng/g | concentration at 2 h (1 mg/kg, 2.00 h, read-out: Conc. in brain, individual animal): 276 ng/g | concentration at 4 h (1 mg/kg, 4.00 h, read-out: Conc. in brain, Mean): 19 ng/g | concentration at 4 h (1 mg/kg, 4.00 h, read-out: Conc. in brain, individual animal): 18.2 ng/g | concentration at 8 h (1 mg/kg, 8.00 h, read-out: Conc. in brain, Mean): 4 ng/g | concentration at 8 h (1 mg/kg, 8.00 h, read-out: Conc. in brain, individual animal): 4.92 ng/g | concentration at 24 h (1 mg/kg, 24.0 h, read-out: Conc. in brain, Mean): 0 ng/g | concentration at 24 h (1 mg/kg, 24.0 h, read-out: Conc. in brain, individual animal): 0 ng/g
SMILES: CC(=O)Nc1ccc(-c2cnc3cc(Cl)ccc3n2)cc1 [CA77.1, N-(4-(6-chloroquinoxalin-2-yl)phenyl)acetamide]
